Test results as given in US20100004221A1, “THIAZEPINE DERIVATIVE” (DAIICHI SANKYO COMPANY, LIMITED, priority 2006, published 2010).

What was measured:
[1] = target: T1, human 11β-HSD1 (Homo sapiens, UniProt P28845); experiment: 11β-HSD1 enzyme inhibition experiment; assay type: biochemical; conditions: test compound at 39 nM; microsome fraction of HEK293 cells expressing human 11β-HSD1; cortisone 160 nM, room temperature, 3 h; read-out: inhibiting effects on cortisol production dependent on the 11β-HSD1 expressing cells
T1 construct: cDNA coding for a full-length of human 11β-HSD1 in a mammal cell expression vector pCIneo; made in house; host or cells: HEK293 cells (transient transfection with pCIneo plasmid); microsome fraction used as enzyme source
T1 sequence (P28845 whole entry): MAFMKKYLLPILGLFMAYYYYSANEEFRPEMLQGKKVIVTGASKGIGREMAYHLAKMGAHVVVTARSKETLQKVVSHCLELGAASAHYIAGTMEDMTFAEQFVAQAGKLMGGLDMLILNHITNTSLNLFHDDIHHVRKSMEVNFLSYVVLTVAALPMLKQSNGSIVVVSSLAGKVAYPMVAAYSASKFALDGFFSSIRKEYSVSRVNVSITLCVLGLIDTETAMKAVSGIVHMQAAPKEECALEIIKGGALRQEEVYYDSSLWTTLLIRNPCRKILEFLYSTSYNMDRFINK
Procedure: A plasmid obtained by incorporating cDNA coding for a full-length of human 11β-HSD1 in a mammal cell expression vector pCIneo (Promega Corporation) was introduced into HEK293 cells using Lipofectamine Plus Reagent (Invitrogen Corporation) according to the package insert. 48 h later, cells were collected and frozen at −80° C. Cells into which the pCIneo vector was introduced were prepared as a control. Cells were thawed and suspended in 20 mM HEPES, 1 mM ethylenediamine tetraacetic acid, 2 mM magnesium chloride (final concentrations), and a buffer containing a protease inhibitor cocktail (Roche), and 4.1 Mpa pressure was applied by N2 cavitation on the ice for 30 min to disrupt cells. The disrupted cell suspension was centrifuged at 1000×g at 4° C. for 10 min, and a supernatant thereof was recovered. The obtained supernatant was further ultracentrifuged at 105,000×g at 4° C. for 30 min, and the resulting precipitate was suspended in an assay buffer (50 mM tris buffer, 10% glycerol) as a microsome fraction and used as an enzyme source.
A reaction was performed on a 384-well plate (Greiner Bio One) using a reaction volume of 25 μL, and all the samples were diluted with an assay buffer (50 mM tris buffer, pH 7.4, 10% glycerol). 0.8 mM NADPH, 6 mM glucose 6-phosphate, 0.35 units/mL glucose 6-phosphate dehydrogenase (Sigma Chemical), and 3 mM magnesium chloride and a microsome fraction having a protein amount of 0.7 μg per well (final concentrations) were added to the plate, and a solution containing a test compound dissolved in dimethyl sulfoxide was added at a final concentration of 0.1% and preincubated at room temperature for 15 min. After completion of preincubation, cortisone at a final concentration of 160 nM was added to start a reaction, and the reaction was performed at room temperature for 3 h. 25 μL of 100 mM carbenoxolone (Sigma Chemical) was added to terminate the reaction, and the amount of produced cortisol was measured with Discovery (Hewlett-Packard Company) using a cortisol prototype kit (Cisbio International) according to the package insert.

Compound	inhibition at 0.039 µM [1]	melting point
Cc1c(-c2nnc3n2CCSC(C)(CO)C3)sc2ccc(Cl)cc12 (stereo not drawn) [Example 8, [3-(5-Chloro-3-methyl-1-benzothiophen-2-yl)-8-methyl-5,6,8,9-tetrahydro[1,2,4]triazolo[4,3-d][1,4]thiazepin-8-yl]methanol]	67.1%	–
CC1(C2CC2)Cc2nnc(-c3ccccc3Cl)n2CCS1 (stereo not drawn) [Example 52, 3-(2-Chlorophenyl)-8-cyclopropyl-8-methyl-5,6,8,9-tetrahydro[1,2,4]triazolo[4,3-d][1,4]thiazepine]	89%	–
CC1(CO)Cc2nnc(-c3ccc(-c4cccc(C(F)(F)F)c4)cc3Cl)n2CCS1 (stereo not drawn) [Example 17, [3-(3-Chloro-3′-trifluoromethylbiphenyl-4-yl)-8-methyl-5,6,8,9-tetrahydro[1,2,4]triazolo[4,3-d][1,4]thiazepin-8-yl]methanol]	–	195 to 198 °C
CC1(CO)Cc2nnc(-c3ccc(-c4ccc(F)cc4)cc3C(F)(F)F)n2CCS1 (stereo not drawn) [Example 22, {3-[4′-Fluoro-3-(trifluoromethyl)biphenyl-4-yl)-8-methyl-5,6,8,9-tetrahydro[1,2,4]triazolo[4,3-d][1,4]thiazepin-8-yl]methanol]	–	202 to 204 °C
CC1(CO)Cc2nnc(-c3ccc(-c4ccccc4F)cc3Cl)n2CCS1 (stereo not drawn) [Example 13, [3-(3-Chloro-2′-fluorobiphenyl-4-yl)-8-methyl-5,6,8,9-tetrahydro[1,2,4]triazolo[4,3-d][1,4]thiazepin-8-yl]methanol]	–	147 to 149 °C
CC1(CO)Cc2nnc(-c3cc(-c4ccc(F)cc4)ccc3Cl)n2CCS1 (stereo not drawn) [Example 34, [3-(4-Chloro-4′-fluorobiphenyl-3-yl)-8-methyl-5,6,8,9-tetrahydro[1,2,4]triazolo[4,3-d][1,4]thiazepin-8-yl]methanol]	–	165 to 168 °C

Other lines, results leading:

inhibition at 0.039 µM [1]	melting point	Compound
35.8%	238 to 241 °C	COc1cc(-c2ccc(F)c(Cl)c2)ccc1-c1nnc2n1CCSC(C)(CO)C2 (stereo not drawn) [Example 32, [3-(3′-Chloro-4′-fluoro-3-methoxybiphenyl-4-yl)-8-methyl-5,6,8,9-tetrahydro[1,2,4]triazolo[4,3-d][1,4]thiazepin-8-yl]methanol]
71.8%	190 to 193 °C	CC1(CO)Cc2nnc(-c3ccc(-c4ccc(F)cc4)cc3Cl)n2CCS1 (stereo not drawn) [Example 1, [3-(3-Chloro-4′-fluorobiphenyl-4-yl)-8-methyl-5,6,8,9-tetrahydro[1,2,4]triazolo[4,3-d][1,4]thiazepin-8-yl]methanol]
–	231 to 234 °C	CC1(CO)Cc2nnc(-c3ccc(-c4ccc(F)c(F)c4)cc3Cl)n2CCS1 (stereo not drawn) [Example 26, [3-(3-Chloro-3′,4′-difluorobiphenyl-4-yl)-8-methyl-5,6,8,9-tetrahydro[1,2,4]triazolo[4,3-d][1,4]thiazepin-8-yl]methanol]
–	219 to 223 °C	CC1(CO)Cc2nnc(-c3ccc(-c4ccc(Cl)cc4)cc3Cl)n2CCS1 (stereo not drawn) [Example 19, [3-(3,4′-Dichlorobiphenyl-4-yl)-8-methyl-5,6,8,9-tetrahydro[1,2,4]triazolo[4,3-d][1,4]thiazepin-8-yl]methanol]
